{
  "source": "patent US6866861B1",
  "about": "“Method and composition for enhancing milk component concentrations” (Land O'Lakes, Inc., priority 1999, dated 2005)",
  "tested_on": "cows",
  "experiment": "Abomasal infusion of xylitol in cows, milk component concentrations (Example 1)",
  "assay_type": "in vivo, cow",
  "experimental": "To determine the weight percent total solids, wet basis, in a sample, the actual weight of total solids is determined by analyzing the sample in accordance with Method #925.23 (33.2.09) of Official Methods of Analysis, Association of Official Analytical Chemists (AOAC) (16th Ed., 1995). The weight percent total solids, wet basis, is then calculated by dividing the actual weight of total solids by the actual weight of the sample. The weight percent of true protein, wet basis, for a particular sample is calculated after first determining the wet basis weight percent of total Kjeldahl nitrogen and the wet basis weight percent of non-protein nitrogen in the sample. The wet basis weight percent of total Kjeldahl nitrogen in the sample is determined using the method referenced above. The wet basis weight percent of non-protein nitrogen (NPN) in the sample is determined in accordance with Method #991.21 (33.2.12) of Official Methods of Analysis, Association of Official Analytical Chemists (AOAC) (16th Ed., 1995). The weight percent of true protein, wet basis, in the sample is then determined by subtracting the wet basis weight percent of non-protein nitrogen in the sample from the wet basis weight percent of total Kjeldahl nitrogen in the sample. To determine the weight percent lactose, wet basis, in a liquid sample, the weight of the liquid sample is first determined. The actual weight of lactose in the liquid sample may then be determined using analysis kit number 176-303, that is available from Boehringer-Mannheim of Indianapolis, Ind. in accordance with the procedural instructions included with analysis kit number 176-303. The weight percent lactose, wet basis, in the liquid sample is then calculated by dividing the actual weight of lactose in the liquid sample by the actual weight of the liquid sample. To determine the weight percent fat, wet basis, in a sample, the actual weight of fat in the sample is determined in accordance with Method #974.09 (33.7.18) of Official Methods of Analysis, Association of Official Analytical Chemists (AOAC) (16th Ed., 1995). The weight percent fat, wet basis, is then calculated by dividing the actual weight of fat in the sample by the actual weight of the sample. In this example, xylitol was abomasally infused into three different cows at a rate of 100 grams per cow per day during a 14 day test period. The rations provided to the cows during the period extending from day 0, prior to abomasal infusion of xylitol, through day 14 of the test period were the same. The only difference in feeding of the cows between day 0 and days 1-14 of the test period were that during days 1-14 the cows were abomasally infused with the dosage of 100 grams of xylitol per cow per day. The xylitol rations were mixed with water in the ratio of 150 grams of water per 100 grams of xylitol to facilitate infusion. Milk from the three cows was collected and analyzed prior to infusion (on day 0) and also was collected and analyzed on the third, seventh and fourteenth day of the test period. The results presented in Table 1 below for each milk component are averages for the milk collected from the three different cows on day 0 and a mean of the day 3, 7, and 14 concentration values, averaged over all of the test cows, for each particular milk component.",
  "key": {"[1]": {"settings": "milk, mean of days 3, 7, 14 minus day 0, 100 g/cow/day abomasal"}, "[2]": {"settings": "milk, mean of days 3, 7 and 14, 100 g/cow/day abomasal infusion, average of 3 cows"}},
  "data": [
    {"smiles": "OC[C@@H](O)[C@H](O)[C@@H](O)CO", "note": "[xylitol]", "values": [
      {"measurement": "weight percent of fat, true protein, lactose, and total solids in the milk (conclusion in words)", "setting": "abomasal infusion, 14 day test period", "value": "net increase"},
      {"measurement": "Fat, Difference (mean − day 0)", "setting": "[1]", "value": "+0.31 Wt %"},
      {"measurement": "Lactose, Difference (mean − day 0)", "setting": "[1]", "value": "+0.01 Wt. %"},
      {"measurement": "Total Solids, Difference (mean − day 0)", "setting": "[1]", "value": "+0.39 Wt. %"},
      {"measurement": "True Protein, Difference (mean − day 0)", "setting": "[1]", "value": "+0.10 Wt. %"},
      {"measurement": "Fat", "setting": "[2]", "value": 3.63, "unit": "Wt %"},
      {"measurement": "Lactose", "setting": "[2]", "value": 4.66, "unit": "Wt. %"},
      {"measurement": "Total Solids", "setting": "[2]", "value": 11.82, "unit": "Wt. %"},
      {"measurement": "True Protein", "setting": "[2]", "value": 2.86, "unit": "Wt. %"}
    ]}
  ]
}
